Tests used:
Type in all cases: cell-based, mouse
H3K27me3 = assay: Western blotting of H3K27me3
Protocol: Equal amounts of total protein (50 μg) from each sample were separated in a 10% SDS-PAGE gel and transferred to a PVDF membrane at 120 V for 2 hours at room temperature. The blot was blocked with 5% nonfat dry milk suspended in 1×TBS (25 mM Tris, 137 mM NaCl, and 2.7 mM KCl) for 1 hour. Membranes were incubated sequentially with primary antibodies and secondary antibodies. Bands were scanned using a densitometer (Bio-Rad) and quantified using the Quantity One 4.6.3 software (Bio-Rad).

[1] = test system: histone acetyltransferase (HAT); assay: HAT activity in fibroblasts on PAAm gels of varying stiffness; settings: glass and gels of various stiffness, inhibitor for 24 hours
Text: FIG. 16. Matrix stiffness modulates histone acetyltransferase (HAT) activity and histone acetylation. (a) Immunofluorescent images of AcH3 in non-transduced fibroblasts cultured on glass and PAAm gels of various stiffness for 2 days. Scale bar, 10 μm. (b) Quantification of AcH3 intensity in cells cultured on glass and PAAm gels of various stiffness (based on experiments in a) (n>40). […] (e) Volcano plot showing differential accessible regions. Red dots indicate regions with increased chromatin accessibility and blue dots regions with decreased accessibility. (f) Heatmap representation of differentially accessible regions that overlap with Ascl1 ChIP-seq peaks (GSE43916: SRX323557). Each row represents a differential region; each column is one biological replicate of the indicated condition. (g) Quantification of HAT activity in fibroblasts cultured on glass and PAAm gels of various stiffness for 2 days, as determined using the Epigenase HAT activity kit (n=6). (h) Quantification of HAT activity in fibroblasts cultured on glass and PA gels of various stiffness for 1 day followed by treatment with vehicle control (DMSO) or a HAT inhibitor (anacardic acid, AA) for 24 hours (n=4). […] In b-i, statistical significance was determined by a one-way ANOVA and Tukey's multiple comparison test (N.S.: Not significant., *p<0.05, **p<0.01, ***p<0.001). […]

[2] = test system: BAM-transduced fibroblasts; assay: iN reprogramming on PAAm gels of varying stiffness; settings: pre-treated for 24 hours before adding Dox
Text: To determine the role of matrix stiffness on iN reprogramming, adult mouse fibroblasts were transduced with doxycycline-inducible lentiviruses containing the three reprogramming factors Ascl1, Brn2 and Myt1l (BAM), and then seeded onto polyacrylamide (PAAm) gels of various stiffness (40 kPa, 20 kPa, and 1 kPa) coated with fibronectin. Glass coverslips coated with the same ECM protein were used as a rigid glass surface control (FIG. 15a). As shown in FIG. 15b-c, both the cell area and nuclear volume of fibroblasts decreased as the stiffness of the PAAm gel decreased. […] After 7 days, cultures were fixed and immunostained for neuronal marker, neuron-specific class III β-tubulin (Tubb3) in order to identify iN cells and determine the reprogramming efficiency (FIG. 15a). […] To determine whether matrix stiffness could modulate the activation of endogenous Ascl1, fibroblasts were transduced with an Ascl1 promoter driven-GFP construct and reprogrammed for 2 days.

SMILES	H3K27me3 level (H3K27me3)	stiffness-dependent HAT activity under HAT inhibitor [1]	stiffness-dependent reprogramming efficiency under HAT inhibitor [2]
CS(=O)(=O)c1ccc(-c2cnc(NCc3ccco3)n3cnnc23)cc1 [EED226]	inhibited	–	–
CCCCCCCCCCCCCCCc1cccc(O)c1C(=O)O [anacardic acid]	–	inhibited the biphasic enhancement of HAT activity and the reprogramming efficiency	inhibited the biphasic enhancement of HAT activity and the reprogramming efficiency

From patent US20230381774A1, “MICROFLUDIC LAB-ON-CHIP DEVICE, MATRIX, SMALL MOLECULES AND THREE-DIMENSIONAL SPHEROIDS FOR CELL REPROGRAMMING” (The Regents of the University of California, priority 2022, published 2023)
